Test results as given in US12037361B2, “Methods for treating multidrug resistant breast cancer” (THE HONG KONG POLYTECHNIC UNIVERSITY, priority 2021, dated 2024).
Residues, ends and D or L forms follow the SMILES beside them.

Tests used:
[1] = tested on: CSCs; test: Annexin V apoptosis assay by flow cytometry in CSCs; format: cell-based, human; conditions: 1 μM DOX for 24 hours, 1 μM peptide
Description: (F) Flow Cytometry Analysis:
Cells were detached by Phosphate buffered saline (PBS) with 2.5 mM EDTA and washed with PBS. For determining CSC population, a total of 1×10^6 cells were incubated with APC-CD44 (BD Biosciences) and PE-CD24 (BD Biosciences) in FACS solution (PBS with 1% BSA and 1 mM EDTA) for 30 minutes on ice. APC-IgG2 (BD Biosciences) and PE-IgG2 (BD Biosciences) were used as isotype controls. For determining apoptotic population, a total of 1×10^6 cells were first treated with or without 1 μM DOX for 24 hours, in the absence or presence of 1 μM TAT-SP or TAT-SPScr, followed by incubation with FITC-Annexin V (BD Biosciences) and propidium iodide (PI) in binding buffer (10 mM Hepes, pH 7.4, 140 mM NaCl and 2.5 mM CaCl2) for 30 minutes on ice as per the manufacturer's instructions. For determining CRT surface localization, a total of 1×10^6 cells, treated with or without 1 μM DOX for 24 hours, were incubated with anti-CRT antibody (1:800, CST) in PBS with 3% BSA for 1 hour on ice. After washing with PBS, cells were further incubated with 2 μg/mL goat anti-rabbit Alexa Fluor 488 (Invitrogen) for 45 minutes on ice. Fluorescence signals were analyzed by BD Accuri C6 flow cytometer (BD Biosciences).

[2] = tested on: MCF-7 CSC; test: Reversal of chemoresistance in MCF-7 CSC (MTS cell viability assay); format: cell-based, human
Description: (L) Determination of 50% Inhibitory Concentration (IC50) by MTS Assay:
MCF-7 AC and derived cells were seeded onto 96-well plates at a density of 1×10^4 cells per well and treatments of anticancer drugs or peptides were administered accordingly. Following 72-hour incubation at 37° C. with 5% CO2, cell viability was assessed using CellTiter 96 AQueous Non-Radioactive Cell Proliferation Assay (Promega). The IC50 value was estimated from the optical density at 492 nm using GraphPad.

[3] = target: T1, ITGA2/CRT interaction (Homo sapiens, UniProt P17301); test: Co-immunoprecipitation with anti-CRT antibody: competition with CRT for KXGFFKR motif of ITGA2; format: binding; conditions: CSC lysate immunoprecipitated with anti-CRT antibody; TAT peptides at 1 μM for 24 hours
T1 construct: endogenous in cells; host or cells: MCF-7-derived cells (lysate)
T1 sequence (P17301 30-1181): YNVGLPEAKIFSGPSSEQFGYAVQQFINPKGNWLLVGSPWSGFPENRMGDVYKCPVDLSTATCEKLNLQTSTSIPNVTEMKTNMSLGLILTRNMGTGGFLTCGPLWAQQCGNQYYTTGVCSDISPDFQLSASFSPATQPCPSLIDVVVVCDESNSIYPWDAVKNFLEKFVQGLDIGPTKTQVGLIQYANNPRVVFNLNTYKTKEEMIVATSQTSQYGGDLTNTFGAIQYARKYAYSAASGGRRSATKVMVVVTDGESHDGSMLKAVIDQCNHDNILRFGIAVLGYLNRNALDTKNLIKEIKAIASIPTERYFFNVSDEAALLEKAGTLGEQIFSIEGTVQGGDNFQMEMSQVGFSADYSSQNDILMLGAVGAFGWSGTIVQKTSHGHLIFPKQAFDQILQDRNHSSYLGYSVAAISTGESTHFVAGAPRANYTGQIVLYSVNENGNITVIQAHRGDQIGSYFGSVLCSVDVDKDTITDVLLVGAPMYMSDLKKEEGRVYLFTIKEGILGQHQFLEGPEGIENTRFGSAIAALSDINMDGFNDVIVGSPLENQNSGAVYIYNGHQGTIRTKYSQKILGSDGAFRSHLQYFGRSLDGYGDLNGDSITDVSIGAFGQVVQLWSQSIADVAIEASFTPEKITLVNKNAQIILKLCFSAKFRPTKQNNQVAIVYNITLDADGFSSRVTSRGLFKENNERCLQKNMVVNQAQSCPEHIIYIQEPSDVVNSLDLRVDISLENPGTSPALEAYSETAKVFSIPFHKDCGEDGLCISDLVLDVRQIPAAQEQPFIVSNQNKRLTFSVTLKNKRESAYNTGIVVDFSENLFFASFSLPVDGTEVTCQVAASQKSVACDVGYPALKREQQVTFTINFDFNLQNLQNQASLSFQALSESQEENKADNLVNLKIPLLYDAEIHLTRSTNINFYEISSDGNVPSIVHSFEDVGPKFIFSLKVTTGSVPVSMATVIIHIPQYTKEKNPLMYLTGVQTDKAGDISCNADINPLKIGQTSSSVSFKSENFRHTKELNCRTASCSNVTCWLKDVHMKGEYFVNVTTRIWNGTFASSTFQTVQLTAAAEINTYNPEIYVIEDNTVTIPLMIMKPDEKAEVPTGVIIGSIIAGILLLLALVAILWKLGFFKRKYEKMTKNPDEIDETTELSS
T1 sequence (P05556 21-798 partner): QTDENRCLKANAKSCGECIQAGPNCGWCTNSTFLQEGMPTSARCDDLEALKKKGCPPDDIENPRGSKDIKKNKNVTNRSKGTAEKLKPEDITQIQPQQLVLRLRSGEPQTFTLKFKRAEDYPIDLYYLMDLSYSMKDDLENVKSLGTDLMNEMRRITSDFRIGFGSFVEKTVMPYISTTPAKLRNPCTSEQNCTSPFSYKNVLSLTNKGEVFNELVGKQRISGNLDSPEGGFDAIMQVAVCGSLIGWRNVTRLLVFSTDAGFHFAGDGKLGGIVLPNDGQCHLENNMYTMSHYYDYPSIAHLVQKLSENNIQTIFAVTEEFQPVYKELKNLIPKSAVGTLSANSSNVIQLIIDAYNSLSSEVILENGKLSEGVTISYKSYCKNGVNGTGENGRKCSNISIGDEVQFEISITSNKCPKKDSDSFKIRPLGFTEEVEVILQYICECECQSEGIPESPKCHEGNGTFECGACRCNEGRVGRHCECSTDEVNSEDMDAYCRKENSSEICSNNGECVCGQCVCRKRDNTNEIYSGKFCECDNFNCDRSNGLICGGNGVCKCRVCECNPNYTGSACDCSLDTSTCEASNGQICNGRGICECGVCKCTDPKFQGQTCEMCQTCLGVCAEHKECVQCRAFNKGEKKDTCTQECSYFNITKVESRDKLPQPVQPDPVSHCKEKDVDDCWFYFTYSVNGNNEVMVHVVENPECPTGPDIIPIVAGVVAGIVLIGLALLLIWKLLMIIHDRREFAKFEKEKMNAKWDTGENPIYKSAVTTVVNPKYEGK
Description: Calreticulin (CRT) from MCF-7-derived cells was immunoprecipitated by anti-CRT (CST) antibody. In brief, MCF-7-derived cells, with or without 24-hour incubation of 1 μM TAT-SP or TAT-SPScr, were collected and subsequently lysed with RIPA buffer on ice for 30 minutes. The lysate was diluted 5-fold with PBS and incubated with anti-CRT antibody overnight at 4° C. with simultaneous mixing on a rotating platform, followed by further incubation of Protein-G PLUS agarose (Santa Cruz Biotechnology) at 4° C. for at least 2 hours.
After incubation, agarose beads were centrifuged and washed by PBS. Immunoprecipitated proteins were collected by treating the beads with 0.2 M glycine and subjected to Western Blotting (WB) analysis.

[4] = tested on: MRP1; test: DOX accumulation assay in CSCs; format: cell-based, human; conditions: 5 μM DOX, 1 μM peptide for 24 hours
Description: (I) DOX Accumulation Assay:
To assess MRP1 activity, 2×10^5 MCF-7 AC and derived cells, with or without 24-hour incubation of 1 μM TAT-SP or TAT-SPScr, were treated with 5 μM DOX at 37° C. for 2 hours. After removal of extracellular drugs, cells were divided into two equal halves. One half was lysed with lysis buffer (isopropanol with 0.75 M HCl and 0.2% Triton X-100) at room temperature for 30 minutes; the other half was incubated with 5 μM CMFDA (Invitrogen) in darkness at room temperature for 30 minutes. The fluorescent intensities of drugs and dyes were detected with CLARIOstar (BMG LABTECH) and relative drug concentrations were normalized to CMFDA level.

[5] = tested on: Akt pathway; test: Western blotting of p-Akt (T308) in CSCs; format: cell-based, human; conditions: 1 μM peptide for 24 hours
Description: (K) Protein Preparation and Western Blotting:
Total protein was extracted with RIPA buffer supplied with protease inhibitor (Roche), resolved in 10% SDS-PAGE and transferred onto Immobilon-P PVDF membrane (Millipore). Membranes were blocked with 5% non-fat dry milk in Tris-buffered saline with 0.1% Tween (TBST) for 2 hours, then were incubated overnight with corresponding antibodies at 4° C., followed by incubation with horseradish peroxidase-conjugated goat anti-mouse IgG (Santa Cruz Biotechnology) or goat anti-rabbit IgG (Santa Cruz Biotechnology) as appropriate, for 2 hours at room temperature in TBST. Antibody binding was detected with Pierce ECL Western Blotting Substrate (Thermo Scientific) and images were visualized with Azure C600 imaging system (Azure Biosystems). The antibodies used were anti-ITGA2 (Abcam), anti-CRT (CST), anti-ILR2 (CST), anti-MRP1/ABCC1 (CST), anti-Mdr-1 (Santa Cruz Biotechnology), anti-Akt (pan) (CST), anti-pAkt (S473) (CST), anti-pAkt (T308) (CST), p53 (Santa Cruz Biotechnology) and anti-β-actin (Santa Cruz Biotechnology).

[6] = tested on: MCF7 human breast cancer xenograft; test: In vivo efficacy study in MCF7 breast cancer xenograft model; conditions: for No. of toxicity death: MCF7 xenograft nude mice, deaths/animals; for tumor volume at end of study: 20 days; for Tumor inhibition (%): 10 injections in 20 days
Description: Data obtained are analyzed to evaluate treatment outcomes. Tumor doubling time is calculated using tumor volumes obtained from the end of experiment versus the tumor volumes on the first day of treatment. Tumor inhibition (%) is calculated using the tumor volumes obtained from the end of experiment. Corresponding equations of determining tumor inhibition (T/C) and tumor doubling time (Td) are provided as follows:
(Q) In Vivo Efficacy Study of DRI-TAT-SP Combined with DOX in Treating MCF7 Breast Cancer Xenograft Model:
Six- to eight-week-old female Balb/c nude mice were maintained under specific pathogen-free conditions prior to in vivo efficacy study. Each animal was implanted with a piece of […] pellet 0.72 mg, 60-day release. (Cat No. SE-121, Innovative Research of America, Sarasota, FL). Four days later, the nude mice were inserted at the both flanks with a sesame sized (around 10 mm^3) MCF-7 tumor piece originated from a tumor bulk. When the tumor reached approximately 100 mm^3 (21-28 days), the mice were randomized and administered intravenously with (1) 1×PBS, (2) DOX 1.2 mg/kg, (3) DRI-TAT-SP 25 mg/kg or (4) DOX 1.2 mg/kg+DRI-TAT-SP 25 mg/kg once every 2 days for a total of 10 injections. Tumor volume was measured using digital caliper once every 4 days. Estimated tumor volume (mm^3) was calculated as ½×length (mm)×width (mm)^2. The mouse body weights were recorded once every two days. The tumor doubling time (Td) was calculated as t×log 2/log(Vf/V0), where t, Vf and V0 stand for interval time, percentage change of tumor volume on final day and percentage change of tumor volume on initial day.

[7] = In vivo toxicity test in Balb/c mice; conditions: healthy Balb/c mice, DOX 1.2 mg/kg i.v. once every two days, 10 injections
Description: (P) In Vivo Toxicity Test in Balb/c Mice:
Healthy female Balb/c mice (6-8 weeks old) were randomized into 3 groups and were administered with (1) DOX 1.2 mg/kg i.v., (2) DRI-TAT-SP 25 mg/kg i.v, and (3) DOX 1.2 mg/kg+DRI-TAT-SP 25 mg/kg i.v. once every two days (q2d) for 10 injections via tail vein injection. The body weight of the mice was measured once every 2 days. Any toxicity symptoms including body weight change and behavioral changes will be monitored.

[8] = in vivo; design: species or system Balb/c mice; conditions: mouse, iv, 25 mg/kg
Description: (M) Pharmacokinetic Study of SHARPIN-Derived Peptides:
SHARPIN-derived peptides powder was dissolved in 1×PBS and administered intravenously at 25 mg/kg to overnight-starved Balb/c mice (n=3). At different time points (5, 15, 30, 60, 120, 240, 420 min), blood was collected via cardiac puncture and placed in a heparinized Eppendorf tube followed by centrifuged at 14,000 rpm for 5 min to obtain blood plasma. Plasma was stored at −80° C. until analysis. Plasma concentration data were analyzed by non-compartmental model. Area under plasma concentration-time curve (AUC), distribution half-life (t1/2α) and elimination half-life (t1/2β) were calculated by PK solution2.0 (Summit Research Service, Ashland, USA).
(O) UPLC/QQQ-MS Analysis Protocol:
Agilent 6460 Ultra Performance Liquid Chromatography-Electrospray Ionization Triple Quadrupole mass spectrometer (UPLC-QQQ-MS) was used in sample separation, peptide detection and quantification. Waters Acquity UPLC BEH Protein C4 column (1.7 μm, 2.1×100 mm) was used for separation. SHARPIN-derived peptides were separated and eluted by a gradient of water (0.1% FA, v/v) and acetonitrile (ACN) (0.1% FA, v/v) at a constant flow rate of 0.3 mL/min. During separation, an elution protocol was used as follows. Equilibration: 0 to 1 min, 5% ACN. Elution gradient: 1 to 10 min, ACN from 5 to 99%. Regeneration: 10 to 11 min, 99% ACN, then 11 to 11.5 min, ACN from 99% to 5%. Re-equilibration: 11.5 to 13 min: 5% acetonitrile. A hundred microlitres of plasma/tumor samples were added with 300 μL acetonitrile (1% formic acid (FA)) for protein and peptide precipitation. […] after centrifugation at 14,000 rpm for 10 minutes. Then the samples were reconstituted in 50% methanol (0.1% FA, v/v), filtered through a 0.22 μm nylon filter, and kept in the autosampler at 4° C. for analysis. Twenty microliters were injected into the MS. The MS was operated in positive electrospray ionization (ESI+) mode with supply of 300° C. gas temperature and sheath gas temperature, 8 L/min drying gas, and 11 L/min sheath gas flow and 3.5 kV capillary voltage. The signals of TAT-SP and DRI-TAT-SP were recorded at m/z 563 to 661 at collision energy (CE) of 15 eV and m/z 569 to 637 at CE of 20 eV, respectively. TAT-SP and DRI-TAT-SP were eluted at 4.05 and 3.86 minutes, respectively.

[9] = FIG. 7B
Text: Table printed on a drawing sheet, FIG. 7B
First reader's note: The table is printed as an inset in the plasma level versus time plot of DRI-TAT-SP, and the substance name is taken from the plot axis.

[10] = MCF7 xenograft, DOX 1.2 mg/kg, DRI-TAT-SP 25 mg/kg
[11] = MCF7 xenograft, i.v. once every 2 days, DOX 1.2 mg/kg, DRI-TAT-SP 25 mg/kg

Molecule: RKKRRQRRRSELGFPPAVQRWVIGRCLCVPER [TAT-SP]
- DOX-induced apoptosis [1]: leaves CSCs unprotected from DOX-induced apoptosis
- modulation of CSC chemoresistance with respect to DOX, PTX and VCR ([2]; CSCs, DOX, PTX and VCR IC50 (FIG. 5D)): able to modulate CSC chemoresistance
- competition with CRT for the KXGFFKR motif / inhibition of immunoprecipitation of ITGA2 [3]: compete with CRT
- DOX accumulation [4]: high level of DOX accumulation
- activation of Akt pathway by ITGA2 (p-Akt T308) [5]: inhibits the activation of Akt pathway

Molecule: SELGFPPAVQRWVIGRCLCVPER [SP, peptide derived from the UBL domain of SHARPIN (residues 259-281)]
- competition with CRT for the KXGFFKR motif / inhibition of immunoprecipitation of ITGA2 [3]: compete with CRT

Molecule: COc1cccc2c1C(=O)c1c(O)c3c(c(O)c1C2=O)C[C@@](O)(C(=O)CO)C[C@@H]3O[C@H]1C[C@H](N)[C@H](O)[C@H](C)O1 [Doxorubicin, reference compound]
- No. of toxicity death [6]: 0/8
- tumor volume at end of study [6, 10]: 270±73 mm^3
- Tumor inhibition (%) [6, 11]: 21.5%
- body weight change [7]: +0.6±2.4%

Molecule: CC[C@@H](C)[C@@H](NC(=O)CNC(=O)[C@@H](CCCNC(=N)N)NC(=O)[C@@H](CS)NC(=O)[C@@H](CC(C)C)NC(=O)[C@@H](CS)NC(=O)[C@H](NC(=O)[C@H]1CCCN1C(=O)[C@@H](CCC(=O)O)NC(=O)[C@@H](CCCNC(=N)N)NC(C)=O)C(C)C)C(=O)N[C@@H](C(=O)N[C@H](Cc1c[nH]c2ccccc12)C(=O)N[C@H](CCCNC(=N)N)C(=O)N[C@H](CCC(N)=O)C(=O)N[C@@H](C(=O)N[C@H](C)C(=O)N1CCC[C@@H]1C(=O)N1CCC[C@@H]1C(=O)N[C@H](Cc1ccccc1)C(=O)NCC(=O)N[C@H](CC(C)C)C(=O)N[C@H](CCC(=O)O)C(=O)N[C@H](CO)C(=O)N[C@H](CCCNC(=N)N)C(=O)N[C@H](CCCNC(=N)N)C(=O)N[C@H](CCCNC(=N)N)C(=O)N[C@H](CCC(N)=O)C(=O)N[C@H](CCCNC(=N)N)C(=O)N[C@H](CCCNC(=N)N)C(=O)N[C@H](CCCCN)C(=O)N[C@H](CCCCN)C(=O)N[C@H](CCCNC(=N)N)C(N)=O)C(C)C)C(C)C [DRI-TAT-SP, Ac-repvclcrgivwrqvappfglesrrrqrrkkr-NH2] (HELM PEPTIDE1{[ac].[dR].[dE].[dP].[dV].[dC].[dL].[dC].[dR].G.[dI].[dV].[dW].[dR].[dQ].[dV].[dA].[dP].[dP].[dF].G.[dL].[dE].[dS].[dR].[dR].[dR].[dQ].[dR].[dR].[dK].[dK].[dR].[am]}$$$$V2.0)
- No. of toxicity death [6]: 0/6
- tumor volume at end of study [6, 10]: 325±135 mm^3
- Tumor inhibition (%) [6, 11]: 10.1%
- Tumor doubling time ([6]; MCF7 xenograft, i.v. once every 2 days, 10 injections, DOX 1.2 mg/kg, DRI-TAT-SP 25 mg/kg): 12.9 days
- EC50 ([2]; MCF-7 breast CSCs, in the presence of DOX, 72-hour incubation, read-out: EC50 of reversing chemoresistance in the presence of DOX (DOX-EC50)): 2300 ± 400 nM
- Cmax ([8]; Balb/c): 870 ng/mL
- half-life ([8]; Balb/c, distribution half-life t1/2α): 15.9 min
- half-life ([8]; Balb/c, elimination half-life t1/2β): 442 min
- time of Cmax post administration [8]: 5 min
- AUC(0-obs) | ng-min/mL [9]: 118,010 ng-min/mL
